This note sets out measurements from patent US11306399B2, “Nanoparticle compositions” (JANUARY THERAPEUTICS, INC., priority 2019, dated 2022).

Structures are written as SMILES.

This assay has as its system human patient-derived xenograft (PDX) derived from a human ovarian tumor (CTG-1180, Champions Oncology). The assay is described as follows: In vivo xenograft efficacy (human ovarian tumor PDX) in tumor-bearing mice. More on the design: species or system Athymic Nude-Foxn1nu mice. How it is done:
A nanoparticle composition comprising Compound 1 and albumin from Example 2 was tested in an in vivo xenograft efficacy model in tumor-bearing mice. Athymic Nude-Foxn1nu mice were implanted subcutaneously with a human patient-derived xenograft (PDX) derived from a human ovarian tumor (CTG-1180, Champions Oncology). Tumors were allowed grow to ˜200 cubic mm before commencement of treatment (day 0). Lyophilized nanoparticle formulations of Compound 1 were rehydrated in 5% dextrose in sterile water (D5W) immediately prior to dosing. Mice were then dosed intravenously with various concentrations of gemcitabine, nanoparticle formulation of Compound 1, or vehicle control (dissolved directly in D5W and dosed in mg of gemcitabine/compound 1 per kg of mouse body weight abbreviated as mpk) once weekly for 4 weeks (mice were dosed on day 0, 7, 14, and 21 with no treatments thereafter). […] Tumor volume was assessed by caliper measurement using the following formula: Tumor volume=width^2×length×0.52. Tumor growth inhibition (TGI) at day 28 was assessed using the following formula: […]. […]
(Xenograft models place foreign cells or tissue in a host animal.)

Turning to `Nc1ccn([C@@H]2O[C@H](CO)[C@@H](O)C2(F)F)c(=O)n1` [gemcitabine, 2′,2′-difluoro-2′-deoxycytidine], the “Tumor growth inhibition (TGI) at day 28” value reads like this: (40 mpk (152 μmol/kg) intravenously once weekly for 4 weeks (day 0, 7, 14, 21)) 88%; (100 mpk (380 μmol/kg) intravenously once weekly for 4 weeks (day 0, 7, 14, 21)) 98%.
